Laboratory results as given in patent US5869494A, “Uses for barbituric acid analogs” (priority 1997, dated 1999).
Read-outs that look alike come from different tables or passages of the source.

Key:
Assay type in all cases: cell-based
[1] = test system: BT-20 human breast cancer cells; test: Cytotoxicity for breast cancer cell line BT-20 (MTT assay); settings: read-out: Percent cell kill; for cytotoxicity at 100 µg/mL: 100 μg/ml; for cytotoxicity at 150 µg/mL: 150 μg/ml; for cytotoxicity at 200 µg/mL: 200 μg/ml
Protocol: (§1) In the following examples, tumor cells were treated with varying concentrations of compounds C1, C2, C4 or C5 dissolved in absolute ethanol. To limit any non-specific toxicity, the final concentration of ethanol was not allowed to exceed 0.5%. Stock concentrations of 5 mg/ml or 20 mg/ml were used. Viability of cells was determined in some studies by the trypan blue dye exclusion method. In other studies, cell viability/proliferation activity was determined by MTT assay by using a kit obtained from Promega, (Promega Corp., Madison, Wis. 53711). For this assay, a 100 μl cell suspension containing 5-10^3 monolayer cells or 1×10^5 suspension cells was placed in the wells of a 96-well microtiter plate. After overnight incubation, cells were treated with different concentrations of the test compound. Control wells received vehicle only. After 24, 48, 72 or 96 h of incubation, 50 μl of MTT dye solution was added. After 4 h of incubation at 37° C., 100 μl of solubilization/stop solution was added. After another h of incubation, cells were mixed using a multi-channel pipet and the absorption of the dye color was recorded at 570 nm using a plate reading absorption spectrophotometer.
(§2) After the incubation period, viability of the cells was determined by MTT assay (Promega Corp., Madison, Wis. 53711).

[2] = test system: MCF-7 human breast cancer cells; test: Cytotoxicity for breast cancer cell line MCF-7 (MTT assay); settings: read-out: Percent cell kill; for cytotoxicity at 100 µg/mL: 100 μg/ml; for cytotoxicity at 150 µg/mL: 150 μg/ml; for cytotoxicity at 200 µg/mL: 200 μg/ml
Protocol: as §1, §2

[3] = test system: PC-3 human prostate cancer cells; test: Cytotoxicity for prostate cancer cell line PC-3 (MTT assay); settings: read-out: Percent cell kill; for cytotoxicity at 100 µg/mL: 100 μg/ml; for cytotoxicity at 150 µg/mL: 150 μg/ml; for cytotoxicity at 200 µg/mL: 200 μg/ml
Protocol: as §1, §2

[4] = test system: L1210 mouse leukemia cells; test: Cytotoxicity for leukemia cells (L1210); settings: for cytotoxicity at 100 µg/mL / cytotoxicity at 150 µg/mL / cytotoxicity at 200 µg/mL: Mus musculus; for cytotoxicity at 100 µg/mL: 100 μg/ml; for cytotoxicity at 150 µg/mL: 150 μg/ml
Protocol: as §1
The viability of the cells was […]

[5] = test system: DU-145 human prostate cancer cells; test: Cytotoxicity for prostate cancer cell line DU-145 (MTT assay); settings: read-out: Percent cell kill; for cytotoxicity at 100 µg/mL: 100 μg/ml; for cytotoxicity at 150 µg/mL: 150 μg/ml; for cytotoxicity at 200 µg/mL: 200 μg/ml
Protocol: as §1, §2

[6] = test system: Daudi human lymphoma cells; test: Cytotoxicity for lymphoma cells (Daudi); settings: Homo sapiens, Daudi; for cytotoxicity at 100 µg/mL: 100 μg/ml; for cytotoxicity at 150 µg/mL: 150 μg/ml, read-out: % Cytotoxicity; for cytotoxicity at 200 µg/mL: 200 μg/ml
Protocol: as §1
The viability of the cells was
Compounds C4 and C5 were also tested for toxicity against human lymphoma Daudi cells.

In the case of CCCCN1C(=O)C(=O)C(=O)N(CCCC)C1=S [Compound C2, 4,5,6(1H)-pyrimidinetrione, 1,3-dibutyldihydro-2-thioxo], the cytotoxicity at 100 µg/mL ([1]; BT-20, 24 h, 24 hr) is reported as 29.8 ± 6.8%, the cytotoxicity at 150 µg/mL ([1]; BT-20, 24 h, 24 hr) is reported as 30 ± 4.4% and the cytotoxicity at 200 µg/mL ([1]; BT-20, 24 h, 24 hr) is reported as 30.3 ± 2.9%. For the same compound, the cytotoxicity at 100 µg/mL ([1]; BT-20, 48 h, 48 hr) was 51.8 ± 1.9%, the cytotoxicity at 150 µg/mL ([1]; BT-20, 48 h, 48 hr) was 50 ± 1.7% and the cytotoxicity at 200 µg/mL ([1]; BT-20, 48 h, 48 hr) was 55.5 ± 8.9%. For the same compound, the cytotoxicity at 100 µg/mL ([1]; BT-20, 72 h, 72 hr) was 57.5 ± 2.6%, the cytotoxicity at 150 µg/mL ([1]; BT-20, 72 h, 72 hr) was 60.8 ± 2.8% and the cytotoxicity at 200 µg/mL ([1]; BT-20, 72 h, 72 hr) was 68.5 ± 3.4%. The cytotoxicity at 100 µg/mL ([1]; BT-20, 96 h, 96 hr) was 99.9%, the cytotoxicity at 150 µg/mL ([1]; BT-20, 96 h, 96 hr) was 99.9% and the cytotoxicity at 200 µg/mL ([1]; BT-20, 96 h, 96 hr) was 99.9%. It also gave a cytotoxicity at 100 µg/mL ([2]; MCF7, 24 h, 24 hr) of 9 ± 7%, a cytotoxicity at 150 µg/mL ([2]; MCF7, 24 h, 24 hr) of 26.3 ± 7.9% and a cytotoxicity at 200 µg/mL ([2]; MCF7, 24 h, 24 hr) of 40 ± 10.6%. The cytotoxicity at 100 µg/mL ([2]; MCF7, 48 h, 48 hr) was 16.3 ± 4.8%, the cytotoxicity at 150 µg/mL ([2]; MCF7, 48 h, 48 hr) was 43.3 ± 7.3% and the cytotoxicity at 200 µg/mL ([2]; MCF7, 48 h, 48 hr) was 70.3 ± 7.8%. For the same compound, the cytotoxicity at 100 µg/mL ([2]; MCF7, 72 h, 72 hr) was 33.3 ± 5.4%, the cytotoxicity at 150 µg/mL ([2]; MCF7, 72 h, 72 hr) was 61 ± 5.6% and the cytotoxicity at 200 µg/mL ([2]; MCF7, 72 h, 72 hr) was 81.3 ± 3.2%. For the same compound, the cytotoxicity at 100 µg/mL ([2]; MCF7, 96 h, 96 hr) was 87.7 ± 0.6%, the cytotoxicity at 150 µg/mL ([2]; MCF7, 96 h, 96 hr) was 97 ± 0.8% and the cytotoxicity at 200 µg/mL ([2]; MCF7, 96 h, 96 hr) was 94.3 ± 2.1%. For the same compound, the cytotoxicity at 100 µg/mL ([3]; 24 h, 24 hr) was 32.7 ± 6.2%, the cytotoxicity at 150 µg/mL ([3]; 24 h, 24 hr) was 47 ± 6.7% and the cytotoxicity at 200 µg/mL ([3]; 24 h, 24 hr) was 57.5 ± 3.5%. The cytotoxicity at 100 µg/mL ([3]; 48 h, 48 hr) was 46.2 ± 4.1%, the cytotoxicity at 150 µg/mL ([3]; 48 h, 48 hr) was 70.7 ± 6% and the cytotoxicity at 200 µg/mL ([3]; 48 h, 48 hr) was 81.5 ± 3.1%. The cytotoxicity at 100 µg/mL ([3]; 72 h, 72 hr) was 51.5 ± 6.5%, the cytotoxicity at 150 µg/mL ([3]; 72 h, 72 hr) was 77.7 ± 4.6% and the cytotoxicity at 200 µg/mL ([3]; 72 h, 72 hr) was 88.5 ± 5.2%. For the same compound, the cytotoxicity at 100 µg/mL ([3]; 96 h, 96 hr) was 75 ± 1%, the cytotoxicity at 150 µg/mL ([3]; 96 h, 96 hr) was 88.7 ± 3.2% and the cytotoxicity at 200 µg/mL ([3]; 96 h, 96 hr) was 95 ± 3.6%. For the same compound, the “% Cytotoxicity” value ([4]; 200 μg/ml, 24 hr, 1440 min) was over 58%, the cytotoxicity at 100 µg/mL ([4]; L1210, 24 h, 24 hr) was 33.2 ± 2% and the cytotoxicity at 150 µg/mL ([4]; L1210, 24 h, 24 hr) was 50 ± 4.1%. The cytotoxicity at 200 µg/mL ([4]; L1210, 24 h, 200 μg/ml, 24 hr) was 58.7 ± 2.6%, the cytotoxicity at 100 µg/mL ([4]; L1210, 48 h, 48 hr) was 29 ± 3.5% and the cytotoxicity at 150 µg/mL ([4]; L1210, 48 h, 48 hr) was 53.7 ± 2.5%. It also gave a cytotoxicity at 200 µg/mL ([4]; L1210, 48 h, 200 μg/ml, 48 hr) of 72.5 ± 2.4%, a cytotoxicity at 100 µg/mL ([5]; DU-145, 24 h, 24 hr) of 0% and a cytotoxicity at 150 µg/mL ([5]; DU-145, 24 h, 24 hr) of 0%. For the same compound, the cytotoxicity at 200 µg/mL ([5]; DU-145, 24 h, 24 hr) was 0%, the cytotoxicity at 100 µg/mL ([5]; DU-145, 48 h, 48 hr) was 0% and the cytotoxicity at 150 µg/mL ([5]; DU-145, 48 h, 48 hr) was 4.2 ± 3.9%. The cytotoxicity at 200 µg/mL ([5]; DU-145, 48 h, 48 hr) was 20 ± 3%, the cytotoxicity at 100 µg/mL ([5]; DU-145, 72 h, 72 hr) was 0% and the cytotoxicity at 150 µg/mL ([5]; DU-145, 72 h, 72 hr) was 9.2 ± 5.3%. For the same compound, the cytotoxicity at 200 µg/mL ([5]; DU-145, 72 h, 72 hr) was 36.7 ± 2.1%, the cytotoxicity at 100 µg/mL ([5]; DU-145, 96 h, 96 hr) was 10 ± 6.1% and the cytotoxicity at 150 µg/mL ([5]; DU-145, 96 h, 96 hr) was 25.2 ± 7.4%. For the same compound, the cytotoxicity at 200 µg/mL ([5]; DU-145, 96 h, 96 hr) was 43.7 ± 4.3%, the cytotoxicity at 100 µg/mL ([6]; 24 h) was 57.5 ± 3% and the cytotoxicity at 150 µg/mL ([6]; 24 h, 24 hr) was 81.3 ± 4%. The cytotoxicity at 200 µg/mL ([6]; 24 h) was 93.2 ± 3.3%, the cytotoxicity at 100 µg/mL ([6]; 48 h) was 41.5% and the cytotoxicity at 150 µg/mL ([6]; 48 h, 48 hr) was 92%. It also gave a cytotoxicity at 200 µg/mL ([6]; 48 h) of 88%.
